According to patent US20220025336A1, “METHOD FOR PRODUCING INSULIN-PRODUCING CELLS, AND COMPOSITION” (KATAOKA CORPORATION, priority 2018, published 2022):

Experiments:
[1] = tested on: human fibroblasts; assay: Direct induction from human fibroblasts into insulin-producing cells; amount of insulin secreted; assay type: cell-based
Source text: (§1) The insulin-producing cell produced by the present invention process can be detected, identified, and isolated using, for example, a morphological change of a cell, a characteristic property of an insulin-producing cell, or a specific marker (e.g., an anti-insulin antibody). Moreover, the secretory capacity of the obtained insulin-producing cell can also be evaluated by quantifying the amount of secreted insulin using sandwich ELISA.
The human fibroblasts used as the material were purchased from DS Pharma Biomedical Co., Ltd. The fibroblasts are derived from human skin.
Human fibroblasts were seeded in 35-mm dishes coated with gelatin (Cat#: 190-15805, manufactured by Wako Pure Chemical Industries, Ltd.) at 5×10^4 cells/dish, and cultured in DMEM medium (manufactured by Gibco) supplemented with 10% fetal bovine serum (FBS), 100 U/mL penicillin, and 100 μg/mL streptomycin until confluent under conditions of 37° C. and 5% CO2. Note that DMEM refers to Dulbecco's Modified Eagle's Medium.
The medium of dishes of the human fibroblasts described above was replaced with the differentiation induction medium described below.
Differentiation induction medium: Advanced DMEM/F-12 (Cat#: 12634010; manufactured by Gibco) supplemented with ITS-X (Cat#: 51500056, manufactured by Gibco), non-essential amino acids (NEAA; Cat#: 11140050, manufactured by Gibco), Glutamine (manufactured by Gibco; final concentration: 2 mmol/L), Nicotinamide (Cat#: 72340-10OG, manufactured by Sigma-Aldrich; final concentration: 10 mmol/L), Exendin-4 (Cat#: av120214, manufactured by Abcam; final concentration: 100 ng/mL), 100 U/mL penicillin, 100 μg/mL streptomycin, insulin, and low molecular weight compounds described below, with or without addition of 10% fetal bovine serum (FBS, manufactured by Hyclone).
Subsequently, the cells were cultured under conditions of 37° C. and 5% CO2 while the medium was changed to the medium of the same composition every three days. […]

[2] = tested on: human adipose tissue-derived mesenchymal stem cells (AdMSC); assay: Direct induction from human adipose tissue-derived mesenchymal stem cells (AdMSC) into insulin-producing cells; amount of insulin secreted; assay type: cell-based; conditions: FIG. 5; 120 μg/mL insulin; cultured 14 days
Source text: as §1
Human mesenchymal stem cells isolated from adipose tissue were purchased from Takara Bio Co., Ltd.
Human mesenchymal stem cells were seeded in 35-mm dishes coated with gelatin (Cat#: 190-15805, manufactured by Wako Pure Chemical Industries, Ltd.) at 5×10^4 cells/dish, and cultured in Mesenchymal Stem Cell Growth Medium 2 (Cat#: C-28009; manufactured by Takara Bio Co., Ltd.) supplemented with 100 U/mL penicillin and 100 μg/mL streptomycin until the cells were almost confluent under conditions of 37° C. and 5% CO2.
The medium of dishes of the human mesenchymal stem cells described above was replaced with the differentiation induction medium described below. […]

| Compound | insulin secretion / secretory capacity of induced cells by combination of low molecular weight compounds ([1]; FIG. 4, 3C (CHIR99021, BRD7389, forskolin) without BRD7389, or with BI-D1870 5 μM or 10 μM instead of BRD7389, no LY294002, 14 days) | increase of the amount of insulin secretion by induction with a high concentration of insulin ([1]; FIG. 2, 120 μg/mL vs 20 μg/mL insulin in differentiation induction medium, cultured 14 days) | amount of insulin secreted as a function of insulin concentration in the differentiation induction medium ([1]; FIG. 3, insulin up to 100 μg/mL, cultured 14 days) | amount of insulin secreted with a high concentration of insulin in the differentiation induction medium [2] |
| --- | --- | --- | --- | --- |
| CC(C)CCN1c2nc(Nc3cc(F)c(O)c(F)c3)ncc2N(C)C(=O)C1C (stereo not shown) [BI-D1870, reference compound] | insulin-producing cells with a higher secretory capacity were also obtained |  |  |  |
| insulin: Human recombinant insulin (Cat#: 093-06351; Wako) added to the differentiation induction medium |  | about 3 times | the greater was the amount of insulin secreted | increased markedly |
